Measured values reported in patent publication US7875617B2, “3,4-dihydro-2-naphthamide derivatives as selective dopamine D3 ligands” (Institut National de la Sante et de la Recherche Medicale …, priority 2005, dated 2011).

Assays:
[1] = biological target: T1, human recombinant dopamine D3 receptor (Homo sapiens, UniProt P35462); assay: inhibition of [125I]iodosulpride binding, D3 receptor; details: for selectivity ratio, D2 receptor affinity relative to D3 receptor affinity: D2 vs D3, times lower affinity at D2; for Ki: [125I]iodosulpride binding, cells expressing human recombinant receptor, read-out: affinity for the D3 receptor
T1 construct: expressed in transfected cells
Experimental: (§1) The activity of the derivatives of formula (I) according to the invention was evaluated with respect to cells expressing human recombinant dopamine receptors. The inhibition constants (Ki) were measured by inhibition of [^125I]iodosulpride binding as described by Sokoloff et al. (1992). The degree of stimulation of the D3 receptor was determined by measuring the incorporation of [^3H]-thymidine in NG 108-15 cells expressing the D3 receptor (Pilon et al., 1994; Sautel et al., 1995).

human D3 receptor = biological target: T2, human D3 receptor (Homo sapiens, UniProt P35462); assay: mitogenesis assay, [3H]thymidine incorporation in NG 108-15 cells expressing the D3 receptor; type: cell-based; details: for EC50: read-out: 50% effective concentration (EC50), mitogenesis; for intrinsic activity (efficacy): relative to quinpirole (full agonist, efficacy 1), nafadotride is full antagonist (efficacy 0)
T2 construct: expressed in transfected cells; host or cells: NG 108-15 cells
Experimental: The activity of the derivatives of formula (I) according to the invention was evaluated with respect to cells expressing human recombinant dopamine receptors.
I-28 activity in vitro towards recombinant D3 receptor has been determined using a validated mitogenesis assay which was performed as follows:
After a 24 h-culture, cells were washed twice with culture medium without fetal calf serum and incubated for 16 hours with drugs in four replicates. Then [^3H]thymidine (1 μCi per well) was added for 2 hours and cells were harvested by vacuum filtration through Whatman GF/C fiber filters using an automated cell harvester (Brandel-Beckman) and rinsed 10 times with 200 μl 50 mM potassium phosphate buffer containing 150 mM NaCl. Radioactivity retained on filters was counted by liquid scintagraphy.

[2] = biological target: T3, human recombinant dopamine D2 receptor (Homo sapiens, UniProt P14416); assay: inhibition of [125I]iodosulpride binding, D2 receptor; details: cells expressing human recombinant receptor, read-out: affinity for the D2 receptor
T3 construct: expressed in transfected cells
Experimental: as §1

[3] = test system: spontaneous locomotor activity of mice; assay: spontaneous locomotor activity during habituation in mice; type: in vivo
Experimental: (§2) Activity of I-28 in vivo was assessed by using a simple test recently developed (Leriche et al. 2003 and international PCT application WO 2004/084952).
(§3) Male Swiss mice (Charles River, France), weighing 26-28 g, were housed six per cage (25×15×13 cm), on a 12 h/12 h light/dark cycle (lights on at 07:00 a.m.), with food and water freely available. Room temperature ranged from 20° C. to 22° C. and humidity varied between 55% and 65%.
(§4) Dizocilpine (MK-801) [(+)-5-methyl-10,11-dihydro-5H-dibenzo[a,d]cyclohepten-5,10-imine maleate] (Sigma) was dissolved in saline (0.9% NaCl). I-28 was dissolved in a few drops of HCl and distilled water, and the pH of the solution was adjusted to pH 5 using NaOH. The doses of I-28 are expressed as the weight of the base. The compounds were injected i.p. in a volume of 5 ml·kg^−1.
All experiments were conducted between 2.00 p.m. and 6.00 p.m., and the animals were kept in the test room at least 1 hour before recording their activity. The locomotor activity was measured in an actimeter that was composed of eight individual activity cages (30×15×18 cm, with sawdust on the floor) transected by infrared beams (Imetronic, Pessac, France). […]
Mice were injected with either Vehicle (distilled water pH 5) or I-28 (0.1, 0.3, 1 or 3 mg·kg^−1), and their horizontal locomotor activity was measured for 30 minutes (spontaneous locomotor activity). […]

[4] = test system: MK-801-induced hyperactivity in mice; assay: MK-801-induced hyperactivity in mice; type: in vivo
Experimental: as §2, §3, §4
All experiments were conducted between 2.00 p.m. and 6.00 p.m., and the animals were kept in the test room at least 1 hour before recording their activity. The locomotor activity was measured in an actimeter that was composed of eight individual activity cages (30×15×18 cm, with sawdust on the floor) transected by infrared beams (Imetronic, Pessac, France). Counts for forward horizontal activity were incremented each time the animal moved from one-half part of the cage to the other, corresponding to disruption of two crossed parallel beams distant of 14 cm. In time-course studies, counts were summed every 5 minute.
Mice were injected with either Vehicle (distilled water pH 5) or I-28 (0.1, 0.3, 1 or 3 mg·kg^−1), and their horizontal locomotor activity was measured for 30 minutes (spontaneous locomotor activity). They were subsequently treated with saline or MK-801 (0.12 mg·kg^−1) and the activity was measured for 1 hour (MK-801-induced locomotor activity).

[5] = NG 108-15 cells transfected with the human D3 receptor

T2 sequence (P35462 whole entry): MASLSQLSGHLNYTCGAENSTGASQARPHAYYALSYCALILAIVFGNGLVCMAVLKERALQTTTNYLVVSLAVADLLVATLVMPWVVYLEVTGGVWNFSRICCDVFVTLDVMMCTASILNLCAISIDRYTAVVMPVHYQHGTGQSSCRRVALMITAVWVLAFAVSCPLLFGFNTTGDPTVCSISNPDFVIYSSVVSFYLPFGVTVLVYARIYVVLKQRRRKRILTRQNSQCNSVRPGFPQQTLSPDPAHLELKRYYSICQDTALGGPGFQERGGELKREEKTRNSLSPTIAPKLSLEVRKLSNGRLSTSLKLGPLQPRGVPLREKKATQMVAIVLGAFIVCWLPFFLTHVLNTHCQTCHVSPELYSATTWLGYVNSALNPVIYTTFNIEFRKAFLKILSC
T1 sequence (P35462 whole entry): as above
T3 sequence (P14416 whole entry): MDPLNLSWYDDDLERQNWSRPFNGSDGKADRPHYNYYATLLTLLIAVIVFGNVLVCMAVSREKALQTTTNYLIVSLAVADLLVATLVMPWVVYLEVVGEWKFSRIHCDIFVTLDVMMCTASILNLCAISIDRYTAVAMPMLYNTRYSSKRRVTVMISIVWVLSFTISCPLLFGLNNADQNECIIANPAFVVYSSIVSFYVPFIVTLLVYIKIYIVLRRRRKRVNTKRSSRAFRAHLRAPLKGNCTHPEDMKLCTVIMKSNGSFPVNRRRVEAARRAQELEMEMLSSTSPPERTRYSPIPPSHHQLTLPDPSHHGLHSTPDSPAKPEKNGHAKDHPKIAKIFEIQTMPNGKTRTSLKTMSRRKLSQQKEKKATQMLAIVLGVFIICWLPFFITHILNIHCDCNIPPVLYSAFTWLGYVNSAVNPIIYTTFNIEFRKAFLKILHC

Compound | selectivity ratio, D2 receptor affinity relative to D3 receptor affinity [1] | Ki [1] [nM] | EC50 (human D3 receptor; [5]) [nM] | intrinsic activity (efficacy) (human D3 receptor) | Ki [2] [nM] | maximal response, % of that produced by quinpirole (human D3 receptor; NG 108-15 cells transfected with the human D3 receptor, mean ±SEM) [%] | change of spontaneous activity ([3]; 3.0 mg·kg−1 i.p., P=0.042) [%] | effect on spontaneous locomotor activity during habituation ([3]; i.p., doses below 3.0 mg·kg−1, 30 minutes) | blood-brain barrier passage ([4]; inferred from activity after systemic administration in mice) | inhibition of MK-801-induced hyperactivity ([4]; mice, 0.3 mg·kg−1 i.p., P=0.031) [%] | inhibition of MK-801-induced hyperactivity ([4]; mice, 1.0 mg·kg−1 i.p., P=0.0073) [%] | inhibition of MK-801-induced hyperactivity ([4]; mice, 3.0 mg·kg−1 i.p., P=0.0012) [%] | ED50, inhibition of MK-801-induced hyperactivity ([4]; mice, i.p., MK-801 0.12 mg·kg−1)
O=C(NCCCCN1CCN(c2cccc(O)c2)CC1)C1=Cc2ccccc2CC1 [Example 4, N-[4-[(3-hydroxyphenyl)piperazine-1-yl]butyl]-3,4-dihydronaphtalene-2-carboxamide] | 160 | 0.71 | 2.2 | 0.85 | – | – | – | – | – | – | – | – | –
N#Cc1cccc(N2CCN(CCCCNC(=O)C3=Cc4ccccc4CC3)CC2)c1 [I-28] | – | 2.1 | 6.3 | 0.37 | 318 | 37±2 | −25 | no effect | crosses the blood-brain barrier | 36.7 | 46.6 | 57.3 | about 0.3 mg·kg−1
CCCCN1CCCC1CNC(=O)c1cc(C#N)c2ccccc2c1OC (centres unmarked) [nafadotride, reference compound] | – | – | – | 0 | – | – | – | – | – | – | – | – | –
O=C(NCCCCN1CCN(c2cccc(O)c2)CC1)c1ccc2ccccc2c1 [reference compound] | 59 | 0.74 | – | – | 44 | – | – | – | – | – | – | – | –
